Source: PubChem BioAssay AID248 (DTP/NCI, 2004)
Where “and” joins values, the source holds several entries; their conditions need not be identical. Equal entries are not always repeated. Toxic doses and inconclusive results are not listed.

Tested on: L1210 leukemia ip in BDF1 mice, survival T/C
Experiment: NCI In Vivo Anticancer Drug Screen. Data for tumor model L1210 Leukemia (intraperitoneal) in B6D2F1 (BDF1) mice
Details: endpoint: mean survival time, higher = longer survival
Procedure, shortened: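 Tumor was transplanted into mice, which were then dosed with test compound or vehicle alone. Survival was recorded for each group, and the treated figure was expressed relative to the control figure.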

[1] = dose: 50.0 mg/kg/injection, schedule: Q01DX001 (ip), vehicle: saline
[2] = dose: 100.0 mg/kg/injection, schedule: Q01DX001 (ip), vehicle: saline
[3] = dose: 200.0 mg/kg/injection, schedule: Q01DX001 (ip), vehicle: saline
[4] = dose: 400.0 mg/kg/injection, schedule: Q01DX001 (ip), vehicle: saline
[5] = dose: 100.0 mg/kg/injection, schedule: Q01DX009 (ip), vehicle: saline
[6] = dose: 200.0 mg/kg/injection, schedule: Q04DX003 (ip), vehicle: saline
[7] = dose: 100.0 mg/kg/injection, schedule: Q01DX009 (ip), vehicle: Klucel (hydroxypropylcellulose) (HPC)
[8] = dose: 200.0 mg/kg/injection, schedule: Q01DX009 (ip), vehicle: Klucel (hydroxypropylcellulose) (HPC)
[9] = dose: 400.0 mg/kg/injection, schedule: Q01DX009 (ip), vehicle: Klucel (hydroxypropylcellulose) (HPC)
[10] = dose: 100.0 mg/kg/injection, schedule: Q04DX003 (ip), vehicle: saline
[11] = dose: 400.0 mg/kg/injection, schedule: Q04DX003 (ip), vehicle: saline

## CCCCOCN1C(=O)N(COCCCC)C(=O)C(CC)(c2ccccc2)C1=O
dose: 100.0 mg/kg/injection, schedule: Q01DX009 (ip), vehicle: saline with Tween-80
  T/C: 97 % of control
dose: 200.0 mg/kg/injection, schedule: Q01DX009 (ip), vehicle: saline with Tween-80
  T/C: 94 % of control
dose: 400.0 mg/kg/injection, schedule: Q01DX009 (ip), vehicle: saline with Tween-80
  T/C: 87 % of control

## CC(=O)N=C(N)N(/N=C(C)\C=N\N(C(C)=O)C(N)=NC(C)=O)C(C)=O
dose: 15.0 mg/kg/injection, schedule: Q01DX Z (ip), vehicle: carboxymethylcellulose (CMC)
  T/C: 96 % of control
dose: 30.0 mg/kg/injection, schedule: Q01DX Z (ip), vehicle: carboxymethylcellulose (CMC)
  T/C: 96 % of control
dose: 60.0 mg/kg/injection, schedule: Q01DX Z (ip), vehicle: carboxymethylcellulose (CMC)
  T/C: 93 % of control and 91 % of control
dose: 120.0 mg/kg/injection, schedule: Q01DX Z (ip), vehicle: carboxymethylcellulose (CMC)
  T/C: 97 % of control and 90 % of control
dose: 240.0 mg/kg/injection, schedule: Q01DX Z (ip), vehicle: carboxymethylcellulose (CMC)
  T/C: 92 % of control
dose: 480.0 mg/kg/injection, schedule: Q01DX Z (ip), vehicle: carboxymethylcellulose (CMC)
  T/C: 94 % of control

## Cc1nc(N)[nH]c(=O)c1N=Nc1ccc(S(=O)(=O)O)cc1
[1]
  T/C: 98 % of control
[2]
  T/C: 98 % of control
[3]
  T/C: 104 % of control

## CC(=O)Oc1cccc(/C=C2/N=C(C)OC2=O)c1
dose: 25.0 mg/kg/injection, schedule: Q04DX003 (ip), vehicle: Klucel (hydroxypropylcellulose) (HPC)
  T/C: 108 % of control
dose: 50.0 mg/kg/injection, schedule: Q04DX003 (ip), vehicle: Klucel (hydroxypropylcellulose) (HPC)
  T/C: 105 % of control
[2]
  T/C: 92 % of control
dose: 100.0 mg/kg/injection, schedule: Q04DX003 (ip), vehicle: Klucel (hydroxypropylcellulose) (HPC)
  T/C: 97 % of control
[3]
  T/C: 92 % of control
[4]
  T/C: 90 % of control

## C[CH2][Sn]([CH2]C)([CH2]C)[S]Cc1ccccc1
dose: 1.56 mg/kg/injection, schedule: Q01DX009 (ip), vehicle: saline with Tween-80
  T/C: 97 % of control
dose: 3.13 mg/kg/injection, schedule: Q01DX009 (ip), vehicle: saline with Tween-80
  T/C: 95 % of control
dose: 6.25 mg/kg/injection, schedule: Q01DX009 (ip), vehicle: saline with Tween-80
  T/C: 87 % of control

## NC(=S)N/N=C/C(=O)O
[2]
  T/C: 91 % of control
[3]
  T/C: 89 % of control
[4]
  T/C: 89 % of control

## CC1(CNC(=O)C(=O)NCC2(C)CO2)CO1 (stereo unspecified)
dose: 15.0 mg/kg/injection, schedule: Q01DX009 (ip), vehicle: acetone
  T/C: 98 % of control
dose: 23.0 mg/kg/injection, schedule: Q01DX009 (ip), vehicle: acetone
  T/C: 98 % of control
dose: 25.0 mg/kg/injection, schedule: Q01DX Z (ip), vehicle: saline
  T/C: 121 % of control
dose: 40.0 mg/kg/injection, schedule: Q01DX Z (ip), vehicle: other
  T/C: 120 % of control
[1]
  T/C: 101 % of control
dose: 50.0 mg/kg/injection, schedule: Q01DX009 (ip), vehicle: saline
  T/C: 124 % of control
dose: 50.0 mg/kg/injection, schedule: Q01DX Z (ip), vehicle: saline
  T/C: 116 % of control
dose: 50.0 mg/kg/injection, schedule: Q04DX003 (ip), vehicle: saline
  T/C: 124 % of control
dose: 100.0 mg/kg/injection, schedule: Q01DX001 (ip), vehicle: acetone
  T/C: 123 % of control
[2]
  T/C: 110 % of control and 113 % of control
[5]
  T/C: 150 % of control
dose: 100.0 mg/kg/injection, schedule: Q01DX Z (ip), vehicle: other
  T/C: 96 % of control
dose: 132.0 mg/kg/injection, schedule: Q04DX003 (ip), vehicle: saline
  T/C: 117 % of control
dose: 150.0 mg/kg/injection, schedule: Q01DX009 (ip), vehicle: saline
  T/C: 157 % of control and 163 % of control
dose: 150.0 mg/kg/injection, schedule: Q01DX Z (ip), vehicle: carboxymethylcellulose (CMC)
  T/C: 121 % of control
dose: 200.0 mg/kg/injection, schedule: Q01DX001 (ip), vehicle: acetone
  T/C: 119 % of control
[3]
  T/C: 120 % of control
[6]
  T/C: 157 % of control and 166 % of control
dose: 225.0 mg/kg/injection, schedule: Q01DX009 (ip), vehicle: saline
  T/C: 180 % of control
dose: 225.0 mg/kg/injection, schedule: Q01DX Z (ip), vehicle: carboxymethylcellulose (CMC)
  T/C: 96 % of control
dose: 300.0 mg/kg/injection, schedule: Q01DX009 (ip), vehicle: saline
  T/C: 94 % of control
dose: 300.0 mg/kg/injection, schedule: Q04DX003 (ip), vehicle: saline
  T/C: 158 % of control and 189 % of control
dose: 338.0 mg/kg/injection, schedule: Q01DX Z (ip), vehicle: other
  T/C: 106 % of control
dose: 400.0 mg/kg/injection, schedule: Q01DX001 (ip), vehicle: acetone
  T/C: 204 % of control

## CN(C)C(=O)Nc1cccc2nsnc12
[7]
  T/C: 106 % of control
[8]
  T/C: 104 % of control
[9]
  T/C: 102 % of control

## CCOC(=O)N1C(C)C1C(C)C (stereo unspecified)
dose: 62.0 mg/kg/injection, schedule: Q04DX003 (ip), vehicle: carboxymethylcellulose (CMC)
  T/C: 97 % of control
dose: 125.0 mg/kg/injection, schedule: Q04DX003 (ip), vehicle: carboxymethylcellulose (CMC)
  T/C: 97 % of control
dose: 250.0 mg/kg/injection, schedule: Q04DX003 (ip), vehicle: carboxymethylcellulose (CMC)
  T/C: 94 % of control

## CCC(C(N)=O)N1C(=O)C2C3CCC(O3)C2C1=O (stereo unspecified)
[10]
  T/C: 101 % of control
[6]
  T/C: 97 % of control
[11]
  T/C: 101 % of control

## CCOC(=O)/C(C#N)=C(\C)CCc1ccccc1
dose: 75.0 mg/kg/injection, schedule: Q01DX001 (ip), vehicle: saline
  T/C: 104 % of control
dose: 150.0 mg/kg/injection, schedule: Q01DX001 (ip), vehicle: saline
  T/C: 101 % of control
dose: 300.0 mg/kg/injection, schedule: Q01DX001 (ip), vehicle: saline
  T/C: 101 % of control

## CC1(C)N=C(c2ccccc2)C2(c3ccccc3)N1C2(C)C (stereo unspecified)
dose: 6.0 mg/kg/injection, schedule: Q01DX001 (ip), vehicle: Klucel (hydroxypropylcellulose) (HPC)
  T/C: 92 % of control
dose: 12.0 mg/kg/injection, schedule: Q01DX001 (ip), vehicle: Klucel (hydroxypropylcellulose) (HPC)
  T/C: 101 % of control
dose: 25.0 mg/kg/injection, schedule: Q01DX001 (ip), vehicle: Klucel (hydroxypropylcellulose) (HPC)
  T/C: 101 % of control

## CC(C)c1ccccc1SCC1=NCCN1
dose: 10.0 mg/kg/injection, schedule: Q04DX003 (ip), vehicle: Klucel (hydroxypropylcellulose) (HPC)
  T/C: 103 % of control
dose: 20.0 mg/kg/injection, schedule: Q04DX003 (ip), vehicle: Klucel (hydroxypropylcellulose) (HPC)
  T/C: 115 % of control

## CC(C)(Oc1cccc2ccccc12)C(=O)O
dose: 100.0 mg/kg/injection, schedule: Q04DX003 (ip), vehicle: saline with Tween-80
  T/C: 100 % of control
dose: 200.0 mg/kg/injection, schedule: Q04DX003 (ip), vehicle: saline with Tween-80
  T/C: 105 % of control
dose: 400.0 mg/kg/injection, schedule: Q04DX003 (ip), vehicle: saline with Tween-80
  T/C: 93 % of control

## Clc1ccnc2c1ccc1c(Cl)ccnc12
dose: 50.0 mg/kg/injection, schedule: Q01DX001 (ip), vehicle: carboxymethylcellulose (CMC)
  T/C: 88 % of control

## O=c1ccc2cc3cc(I)c(O)c(I)c3oc-2c1I
[7]
  T/C: 101 % of control
[8]
  T/C: 99 % of control

## O=C1CC(c2c[nH]c3nccnc23)NN1 (stereo unspecified)
dose: 6.25 mg/kg/injection, schedule: Q01DX009 (ip), vehicle: water
  T/C: 100 % of control
dose: 12.5 mg/kg/injection, schedule: Q01DX009 (ip), vehicle: water
  T/C: 100 % of control
dose: 25.0 mg/kg/injection, schedule: Q01DX009 (ip), vehicle: water
  T/C: 99 % of control
dose: 50.0 mg/kg/injection, schedule: Q01DX009 (ip), vehicle: water
  T/C: 105 % of control
dose: 100.0 mg/kg/injection, schedule: Q01DX009 (ip), vehicle: water
  T/C: 94 % of control
dose: 200.0 mg/kg/injection, schedule: Q01DX009 (ip), vehicle: water
  T/C: 89 % of control

## CCCCCC(N)CC(=O)O (stereo unspecified)
[5]
  T/C: 105 % of control
[10]
  T/C: 102 % of control
dose: 200.0 mg/kg/injection, schedule: Q01DX009 (ip), vehicle: saline
  T/C: 96 % of control
[6]
  T/C: 96 % of control
dose: 400.0 mg/kg/injection, schedule: Q01DX009 (ip), vehicle: saline
  T/C: 96 % of control
[11]
  T/C: 105 % of control

## Cc1c(C)c(C)c(CNNC(=S)Nc2cccc(Cl)c2)c(C)c1C
[7]
  T/C: 95 % of control
[8]
  T/C: 91 % of control
[9]
  T/C: 91 % of control
